Assay results: PubChem BioAssay (NCI)
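Cells were grown in 96-well plates and exposed to each compound for 48 hours at five concentrations; endpoints were interpolated linearly between bracketing concentrations, or set to the highest concentration if not reached. TGI: concentration producing complete growth inhibition.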

Columns and labels:
Assay in all cases: inhibition of tumour cell growth, NCI panel, 48 h
ACHN renal = system: ACHN renal
U251 CNS = system: U251 CNS
MALME-3M melanoma = system: MALME-3M melanoma
NCI/ADR-RES ovarian = system: NCI/ADR-RES ovarian
NCI-H460 lung = system: NCI-H460 lung
OVCAR-5 ovarian = system: OVCAR-5 ovarian
NCI-H23 lung = system: NCI-H23 lung
OVCAR-8 ovarian = system: OVCAR-8 ovarian
HOP-92 NSCLC = system: HOP-92 NSCLC
SNB-19 CNS = system: SNB-19 CNS
SF-268 CNS = system: SF-268 CNS
HCT-116 colon = system: HCT-116 colon
NCI-H522 lung = system: NCI-H522 lung
T-47D breast = system: T-47D breast
TK-10 renal = system: TK-10 renal
SW-620 colon = system: SW-620 colon
SF-295 CNS = system: SF-295 CNS
OVCAR-3 ovarian = system: OVCAR-3 ovarian
SK-OV-3 ovarian = system: SK-OV-3 ovarian
SN12C renal = system: SN12C renal

Row | SMILES | TGI (ACHN renal) | TGI (U251 CNS) | TGI (MALME-3M melanoma) | TGI (NCI/ADR-RES ovarian) | TGI (NCI-H460 lung) | TGI (OVCAR-5 ovarian) | TGI (NCI-H23 lung) | TGI (OVCAR-8 ovarian) | TGI (HOP-92 NSCLC) | TGI (SNB-19 CNS) | TGI (SF-268 CNS) | TGI (HCT-116 colon) | TGI (NCI-H522 lung) | TGI (T-47D breast) | TGI (TK-10 renal) | TGI (SW-620 colon) | TGI (SF-295 CNS) | TGI (OVCAR-3 ovarian) | TGI (SK-OV-3 ovarian) | TGI (SN12C renal)
1 | O=C(NCCCNC(=O)c1ccc2cc(O)c(O)cc2c1)c1ccc2cc(O)c(O)cc2c1 | > 100 µM | > 100 µM | > 100 µM | > 100 µM | > 100 µM | > 100 µM | 63.5 µM | > 100 µM | 48 µM | 56.5 µM | > 100 µM | > 100 µM | > 100 µM | 90.6 µM | > 100 µM | > 100 µM | – | – | – | –
2 | Cc1cc(NS(=O)(=O)c2ccc(N=Nc3c(O)c(C(=O)O)cc4ccccc34)cc2)nc(C)n1 | > 100 µM | > 100 µM | > 100 µM | > 100 µM | > 100 µM | > 100 µM | – | > 100 µM | > 100 µM | > 100 µM | > 100 µM | > 100 µM | > 100 µM | – | > 100 µM | > 100 µM | > 100 µM | > 100 µM | > 100 µM | –
3 | CN(CCCNc1ccc2ncn3c4ccccc4c(=O)c1c23)CCCN1C(=O)c2cccc3cc([N+](=O)[O-])cc(c23)C1=O | 1.21 µM | 0.133 µM | – | 1.69 µM | 0.0224 µM | 2.35 µM | 1.5 µM | 1.86 µM | 6.39 µM | 2.28 µM | 2.28 µM | 0.02 µM | 1.48 µM | 3.42 µM | 0.156 µM | – | 1.42 µM | 2.29 µM | 2.69 µM | 1.78 µM
4 | CC(=O)[C@]1(O)Cc2c(O)c3c(c(O)c2C(OC2OC(C)C(O)C(O)C2F)C1)C(=O)c1ccccc1C3=O (stereo partly specified) | – | 0.996 µM | 1.48 µM | 3.78 µM | – | 1.31 µM | 0.303 µM | 16.1 µM | 3.92 µM | – | 2.28 µM | 6.83 µM | 2.28 µM | 7.8 µM | 71.3 µM | – | 0.324 µM | 6.64 µM | 45.9 µM | 12.4 µM
5 | C[N+](C)(N)CCC[N+](C)(C)N | > 100 µM | > 100 µM | > 100 µM | > 100 µM | > 100 µM | > 100 µM | > 100 µM | > 100 µM | > 100 µM | > 100 µM | > 100 µM | > 100 µM | > 100 µM | > 100 µM | > 100 µM | > 100 µM | > 100 µM | > 100 µM | > 100 µM | > 100 µM
6 | CN(C)CC(CN(C)C)c1ccccn1 | > 100 µM | > 100 µM | > 100 µM | > 100 µM | > 100 µM | > 100 µM | > 100 µM | > 100 µM | > 100 µM | > 100 µM | > 100 µM | > 100 µM | > 100 µM | – | > 100 µM | > 100 µM | > 100 µM | > 100 µM | > 100 µM | > 100 µM
7 | CC(C(=O)O)c1cnn(-c2ccccc2)c1-n1cccc1 (stereo unspecified) | – | > 100 µM | > 100 µM | > 100 µM | > 100 µM | > 100 µM | > 100 µM | > 100 µM | > 100 µM | > 100 µM | > 100 µM | > 100 µM | > 100 µM | – | – | > 100 µM | > 100 µM | > 100 µM | > 100 µM | > 100 µM
8 | CC[C@]12C=CCN3CC[C@@]4(c5ccc(OC)cc5N(C)[C@H]4[C@@](O)(C(=O)OC)[C@@H]1OC(C)=O)[C@@H]32 | – | > 200 µM | > 200 µM | > 200 µM | > 200 µM | > 200 µM | > 200 µM | > 11.2 µM | 132 µM | > 200 µM | > 200 µM | > 200 µM | > 200 µM | – | – | > 200 µM | > 200 µM | > 112 µM | > 200 µM | > 200 µM
9 | CC[C@@H]1/C=C/C=C/C[C@H](C)[C@@H](O)[C@](C)(O)C(=O)[C@H](C)[C@@H](O)[C@H](C)C(=O)[C@H](C)[C@@H](O)[C@H](C)/C=C/C(=O)O[C@H]2[C@@H](C)[C@@H](CC1)O[C@]1(O[C@H](CC(C)O)[C@H](C)CC1=O)[C@@H]2C (stereo partly specified) | 9.19 µM | 11.9 µM | 14.2 µM | 14.8 µM | 6.85 µM | 8.25 µM | 12.4 µM | > 25 µM | 9.98 µM | > 25 µM | 7.93 µM | 6.26 µM | 6.59 µM | > 25 µM | 17.9 µM | > 25 µM | 0.114 µM | 13.1 µM | > 19.2 µM | 8.72 µM
10 | Oc1ccc2ccccc2c1N=Nc1ccc(F)cc1 | > 100 µM | > 100 µM | > 100 µM | – | > 100 µM | > 100 µM | > 100 µM | > 100 µM | > 100 µM | > 100 µM | > 100 µM | > 100 µM | > 100 µM | – | > 100 µM | > 100 µM | > 100 µM | > 100 µM | > 100 µM | > 100 µM
11 | COC(=O)C1(c2ccc(N(C)C)cc2OC)CCCN(C(=O)Oc2ccccc2[N+](=O)[O-])CCc2c1[nH]c1ccccc21 (stereo unspecified) | – | > 100 µM | > 100 µM | > 100 µM | > 100 µM | > 100 µM | > 100 µM | > 100 µM | > 100 µM | – | > 100 µM | > 100 µM | > 100 µM | > 100 µM | > 100 µM | > 100 µM | > 100 µM | > 100 µM | > 100 µM | > 100 µM
12 | NCCc1nc(-c2nc(C(=O)O)cs2)cs1 | > 100 µM | > 100 µM | > 100 µM | > 100 µM | > 100 µM | > 100 µM | > 100 µM | > 100 µM | > 100 µM | > 100 µM | > 100 µM | > 100 µM | > 100 µM | > 100 µM | > 100 µM | > 100 µM | > 100 µM | > 100 µM | > 100 µM | > 100 µM
13 | CC[N+](C)(CC)Cc1ccccc1[N+](=O)[O-] | > 100 µM | > 100 µM | > 100 µM | > 100 µM | > 100 µM | > 100 µM | > 100 µM | > 100 µM | > 100 µM | – | > 100 µM | > 100 µM | > 100 µM | > 100 µM | > 100 µM | > 100 µM | > 100 µM | 73.7 µM | > 100 µM | > 100 µM
14 | CCSc1nc(N2CCOCC2)c2cn[nH]c2n1 | > 100 µM | > 100 µM | > 100 µM | > 100 µM | > 100 µM | > 100 µM | > 100 µM | > 100 µM | > 100 µM | > 100 µM | > 100 µM | > 100 µM | > 100 µM | > 100 µM | > 100 µM | > 100 µM | > 100 µM | > 100 µM | > 100 µM | > 100 µM
15 | C=CCNc1ccc(C)cc1 | > 100 µM | > 100 µM | – | > 100 µM | > 100 µM | – | > 100 µM | > 100 µM | > 100 µM | > 100 µM | > 100 µM | > 100 µM | > 100 µM | > 100 µM | > 100 µM | > 100 µM | > 100 µM | > 100 µM | – | > 100 µM
16 | Cc1ccc2nc3ccccc3c(C3C4C(=O)N(c5ccc(Br)cc5Cl)C(=O)C4ON3C(C(N)=O)c3ccccc3)c2c1 (stereo unspecified) | 15.3 µM | > 25 µM | > 25 µM | – | > 25 µM | > 25 µM | 6.86 µM | > 25 µM | > 25 µM | > 25 µM | > 25 µM | > 25 µM | > 25 µM | > 25 µM | > 25 µM | > 25 µM | > 25 µM | > 25 µM | > 25 µM | 23.2 µM
17 | O=c1c2ccccc2nnn1-c1n[nH]c2ccccc12 | > 100 µM | > 100 µM | > 100 µM | > 100 µM | > 100 µM | > 100 µM | > 100 µM | – | > 100 µM | > 100 µM | > 100 µM | > 100 µM | > 100 µM | > 100 µM | > 100 µM | > 100 µM | > 100 µM | > 100 µM | – | > 100 µM
18 | CCOc1cc(NC(C)=O)ccc1C(=O)NN1C(=O)C(Oc2ccccc2)C1c1ccc(O)c(OC)c1 (stereo unspecified) | > 100 µM | > 100 µM | – | > 100 µM | – | > 100 µM | > 100 µM | 96.8 µM | > 100 µM | > 100 µM | – | > 100 µM | – | 77.9 µM | > 100 µM | > 100 µM | > 100 µM | > 100 µM | > 100 µM | 99.4 µM
19 | COc1ccc2c(c1)CCCc1cn[nH]c1-2 | – | > 100 µM | > 100 µM | > 100 µM | > 100 µM | > 100 µM | > 100 µM | > 100 µM | > 100 µM | > 100 µM | > 100 µM | > 100 µM | > 100 µM | – | – | > 100 µM | > 100 µM | > 100 µM | > 100 µM | > 100 µM
20 | CC(C)CCN=c1cc2n(-c3ccc(Cl)cc3)c3ccccc3nc-2cc1Nc1ccc(Cl)cc1 | – | 26.5 µM | 31 µM | 28.6 µM | 15.6 µM | 35.3 µM | 12.1 µM | 33.7 µM | 16.8 µM | > 100 µM | > 100 µM | 11.4 µM | 7.06 µM | – | – | > 70.3 µM | 44.2 µM | 6.61 µM | 70.2 µM | 58.1 µM
21 | Cc1cc(C)cc(Nc2nnc3n2S(=O)(=O)c2cc(C#N)c(Cl)cc2S3)c1 | 10.7 µM | 4.29 µM | 2.92 µM | 6.51 µM | 12.2 µM | 9.55 µM | 4.35 µM | – | – | 21.6 µM | 5.48 µM | 6.37 µM | 4.59 µM | 31.6 µM | – | 4.86 µM | 9.2 µM | 3.34 µM | 21.9 µM | 7.15 µM
